Measured values reported in PubChem BioAssay (NCI).
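Five concentrations, 48 hours, 96-well plates. TGI denotes the concentration required for complete inhibition of growth.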

Tests used:
Assay in all cases: inhibition of tumour cell growth, NCI panel, 48 h
[1] = test system: 786-0 renal
[2] = test system: A498 renal
[3] = test system: A549 NSCLC
[4] = test system: ACHN renal
[5] = test system: BT-549 breast
[6] = test system: CAKI-1 renal
[7] = test system: CCRF-CEM leukemia
[8] = test system: COLO 205 colon
[9] = test system: DU-145 prostate
[10] = test system: EKVX NSCLC
[11] = test system: HCC-2998 colon
[12] = test system: HCT-116 colon
[13] = test system: HCT-15 colon
[14] = test system: HL-60(TB) leukemia
[15] = test system: HOP-62 NSCLC
[16] = test system: HOP-92 NSCLC
[17] = test system: HS 578T breast
[18] = test system: HT29 colon
[19] = test system: IGROV1 ovarian
[20] = test system: K-562 leukemia
[21] = test system: KM12 colon
[22] = test system: LOX IMVI melanoma
[23] = test system: M14 melanoma
[24] = test system: MALME-3M melanoma
[25] = test system: MCF7 breast
[26] = test system: MDA-MB-231 breast
[27] = test system: MDA-MB-435
[28] = test system: MDA-N
[29] = test system: MOLT-4 leukemia
[30] = test system: NCI-H23 lung
[31] = test system: NCI-H460 lung
[32] = test system: NCI-H522 lung
[33] = test system: NCI/ADR-RES ovarian
[34] = test system: OVCAR-3 ovarian
[35] = test system: OVCAR-4 ovarian
[36] = test system: OVCAR-5 ovarian
[37] = test system: OVCAR-8 ovarian
[38] = test system: PC-3 prostate
[39] = test system: RPMI-8226 leukemia
[40] = test system: RXF 393 renal
[41] = test system: SF-268 CNS
[42] = test system: SF-295 CNS
[43] = test system: SF-539 CNS
[44] = test system: SK-MEL-2 melanoma
[45] = test system: SK-MEL-28 melanoma
[46] = test system: SK-MEL-5 melanoma
[47] = test system: SK-OV-3 ovarian
[48] = test system: SN12C renal
[49] = test system: SNB-19 CNS
[50] = test system: SNB-75 CNS
[51] = test system: SW-620 colon
[52] = test system: T-47D breast
[53] = test system: TK-10 renal
[54] = test system: U251 CNS
[55] = test system: UACC-257 melanoma
[56] = test system: UACC-62 melanoma
[57] = test system: UO-31 renal
[58] = test system: NCI-H226 lung
[59] = test system: SR leukemia

Measured: TGI

COC(=O)C1CC23C4=C(CCC41)CCC1CN4CC(C)C(CC(OC(C)=O)C12COC(C)=O)C43O (stereo not given)
not listed: [58] | [59]
> 100 µM: all other assays above

COc1cc(COC(=O)N2CC=CC2C(=O)O)c([N+](=O)[O-])cc1OC (stereo not given)
not listed: [6] | [22] | [26] | [32] | [35] | [44]
> 100 µM: all other assays above
